# Experiments:
# Format in all cases: in vivo, Solanum tuberosum
# [1] = tested on: Russet Burbank seed tubers; test: Example 4: sprout inhibition by aldehyde vapors, 26 days of sprouting; conditions: 12 hours vapor, 26 days at 18° C.
# Method: Methods: Eleven-month-old Russet Burbank seed tubers were taken from a 4° C. storage area and exposed to trans-2-hexenal (0.6-4.3 mmol/kg), trans-2-heptenal (0.6-3.8 mmol/kg) and trans-2-octenal (0.5-2.5 mmol/kg) vapors separately in 3.9 L glass containers for 12 hours at 23° C. The aldehydes were applied to filter paper inside petri dishes within each jar. Control tubers were enclosed in a glass container without any aldehyde. Sprouts were ‘peeping’ (approximately 3 mm in length) at the time of treatment. Following treatment, tubers were placed at 18° C. (95% relative humidity) in the dark to sprout for 26 days. The experiment was set up in a randomized complete block design (5 replicates) with chemicals and concentrations arranged factorially. Effects of the aliphatic aldehydes on the development of etiolated sprouts were documented at 20 days (photographically) and 26 days of sprouting.
# [2] = tested on: Russet Burbank and Ranger Russet seed-tubers; test: Example 5: sprout inhibition by C5 to C9 trans-2 aldehydes over prolonged storage (17 weeks); conditions: 0.5, 0.75 and 1.0 mmol/kg tuber, 24 hours, 17 weeks at 8° C.; for inhibition of sprout development (in words): 95% RH
# Method: (46° F.), 95% relative humidity (RH), for 17 weeks. As described more fully in Example 5, four-month-old tubers (previously stored at 4° C.) were treated (for 24 h) with different concentrations of the aldehydes in mid January. The treated tubers were then stored in the dark for 120 days (17 weeks).
# Methods: Four-month-old Russet Burbank and Ranger Russet seed-tubers were taken from a 4° C. storage area and treated (Jan. 10, 2001) separately with 0, 0.5, 0.75 and 1.0 mmol/kg tuber of trans-2-pentenal, trans-2-hexenal, trans-2-heptenal, trans-2-octenal, and trans-2-nonenal in 3.9 L glass jars. The volume of inhibitor required to achieve the above rates was pipetted onto filter paper discs inside the lids of each jar. The concentration of inhibitors in the headspace of the jars was equal at 0.16 mmol/L. The tubers were enclosed in the jars and thus exposed to inhibitor vapor for 24 hours at 23° C. Control tubers were enclosed in a glass jar without any aldehyde. Following treatment, tubers were removed from the jars and placed at 8° C. (46° F.) (95% relative humidity) in the dark to sprout for 120 days (17 weeks). The experiment was set up in a randomized complete block design (5 replicates) with chemicals and concentrations arranged factorially. Effects of the aliphatic aldehydes on the development of etiolated sprouts were documented photographically and quantitatively (sprout number and fresh weight) after 120 days of storage.
# [3] = tested on: Russet Burbank tubers; test: Example 6: reconditioning, sprout fresh weight and fry color; conditions: 0.45 mmol/kg
# Method: Seven-month-old tubers from 4° C. (40° F.) storage were treated with 0.45 mmol/kg trans-2-nonenal for 17 hours at 23° C. The tubers were then placed at 14° C. (57° F.) to recondition. French fries were processed from the tubers through four weeks of reconditioning. Fry color (lightness or darkness) was quantified with a photovolt reflectance meter. High photovolt values indicate light-colored fries (high processing quality). Low photovolt values indicate low-quality, dark-colored fries.
# Methods: Russet Burbank tubers were stored at 7° C. (44° F.) from harvest Oct. 29, 2000 to Jan. 26, 2001. The tubers were transferred to 4° C. (40° F.) on Jan. 26, 2001, until treatment on Apr. 2, 2001. Tubers were treated with 0.45 mmol/kg trans-2-nonenal in 9.2 L glass desiccators for 17 hours at 23° C. Following treatment, the tubers were placed at 14° C. (57° F.) to recondition for 0, 1, 2, 3 and 4 weeks. […] Fry darkness of the apical and basal ends of the fries was quantified with a photovolt reflectance meter within three minutes of frying. A high reflectance reading (photovolt unit) indicates light fry color due to a relatively low sugar level and thus a high-quality processed product. Conversely, a low reflectance reading indicates dark fry color due to high sugar content, resulting in low processing quality. […] Sprout fresh weight and fry color were recorded.
structure (smiles),measurement,setting,value
CCCC/C=C/C=O [trans-2-heptenal],Average Sprout Length,[1]; 0.56 mmol/kg,0.2 cm/tuber
same,Sprout Fresh Weight,[1]; 0.56 mmol/kg,0.01 g/tuber
same,Average Sprout Length,[1]; 1.11 mmol/kg,0 cm/tuber
same,Sprout Fresh Weight,[1]; 1.11 mmol/kg,0 g/tuber
same,Average Sprout Length,[1]; 1.69 mmol/kg,0 cm/tuber
same,Sprout Fresh Weight,[1]; 1.69 mmol/kg,0 g/tuber
same,Average Sprout Length,[1]; 2.16 mmol/kg,0 cm/tuber
same,Sprout Fresh Weight,[1]; 2.16 mmol/kg,0 g/tuber
same,Average Sprout Length,[1]; 3.85 mmol/kg,0 cm/tuber
same,Sprout Fresh Weight,[1]; 3.85 mmol/kg,0 g/tuber
same,inhibition of sprout development (in words),[2],inhibited sprouting in a concentration-dependent manner
CCCCCC/C=C/C=O [trans-2-nonenal],external pitting damage to the periderm (in words),[2],did not induce external pitting damage
same,inhibition of sprout development (in words),[2],totally inhibited sprout development
same,sprouts produced (fresh weight),"[3]; 17 hours at 23° C., four weeks of reconditioning at 57° F.",13.5 g fresh weight/12 tubers
same,"processing quality (fry color, photovolt reflectance) (in words)",[3]; from 2 to 4 weeks of reconditioning at 57° F.,continued to increase
CCCCC/C=C/C=O [trans-2-octenal],Average Sprout Length,[1]; 0.50 mmol/kg,0 cm/tuber
same,Sprout Fresh Weight,[1]; 0.50 mmol/kg,0 g/tuber
same,Average Sprout Length,[1]; 0.97 mmol/kg,0 cm/tuber
same,Sprout Fresh Weight,[1]; 0.97 mmol/kg,0 g/tuber
same,Average Sprout Length,[1]; 1.44 mmol/kg,0 cm/tuber
same,Sprout Fresh Weight,[1]; 1.44 mmol/kg,0 g/tuber
same,Average Sprout Length,[1]; 1.93 mmol/kg,0.2 cm/tuber
same,Sprout Fresh Weight,[1]; 1.93 mmol/kg,0.10 g/tuber
same,Average Sprout Length,[1]; 2.48 mmol/kg,0.2 cm/tuber
same,Sprout Fresh Weight,[1]; 2.48 mmol/kg,0.13 g/tuber
same,external pitting damage to the periderm (in words),[2],did not induce external pitting damage
same,inhibition of sprout development (in words),[2],totally inhibited sprout development
CC/C=C/C=O [trans-2-pentenal],inhibition of sprout development (in words),[2],inhibited sprouting in a concentration-dependent manner
